The source of these data is patent publication US10782295B2, “Cysteine-reactive ligand discovery in proteomes” (THE SCRIPPS RESEARCH INSTITUTE, priority 2013, dated 2020).

Each structure is given as a SMILES string.

For one assay, the target named is T1, EEF2 (Homo sapiens, UniProt P13639).
T1 construct: directly in native proteomes; endogenous in cells; host or cells: MDA-MB-231
Kind of assay: competitive isoTOP-ABPP, MDA-MB-231 soluble proteome. The format is binding. Particulars: 100 μM LDE, 60 min; peptide STLTDSLVC*K. The procedure:
(§1) Here, we envisioned that isoTOP-ABPP could be advanced to discover and quantify reactions between cysteines in proteomes and any electrophilic compound. In this advanced, ‘competitive’ version of isoTOP-ABPP (FIG. 1a), a proteome is treated with an electrophile (experimental sample) or DMSO (control sample). Both proteomic samples are then labeled with the IA probe and conjugated by CuAAC to light and heavy azide-biotin tags, respectively. The light and heavy samples are then mixed and subjected to our described isoTOP-ABPP protocol for enrichment, identification, and quantification of IA-labeled cysteines^30. Electrophile-modified cysteines are quantified by measuring the MS1 chromatographic peak ratios (R values) for heavy (DMSO-treated) over light (electrophile-treated) samples, with higher R values reflecting greater sensitivity to the electrophile. In this format, competitive isoTOP-ABPP can assay electrophiles against 1000+ cysteines in parallel directly in native proteomes without requiring any chemical modification to the electrophiles themselves.
(§2) Competitive isoTOP-ABPP experiments were performed in quadruplicate using the soluble proteome of the human breast cancer cell line MDA-MB-231 cell line. Proteomes were treated with 100 μM HNE, 15d-PGJ2, or 2-HD, for 60 minutes, followed by the IA-probe (100 μM, 60 min) A total of ˜1400 cysteine reactivities were quantified across the aggregate data set, with at least 900 cysteine reactivities quantified for each LDE (FIG. 2a) more than 750 of which were quantified for all the three electrophiles.
(§3) The MDA-MB-231 cell proteome was treated with varying concentrations of HNE (5, 10, 50, 100 and 500 μM) for 60 min and then the IA-labeling profile of each reaction was quantitatively compared to a DMSO-control sample by isoTOP-ABPP.
(§4) HNE was purchased from EMD biosciences, 15d-PGJ2 was purchased from Cayman Chemicals and 2-HD was purchased from Santa Cruz Biotechnology. Proteome samples were diluted to a 4 mg protein/mL solution in PBS. For each profiling experiment, one aliquot of the proteome sample (0.5 mL) was treated with 100 μM of LDE using 5 μL of a 10 mM stock and the other aliquot was treated with 5 μL of either ethanol (for HNE and 15d-PGJ2) or DMSO (for 2-HD) as control. For the concentration-dependent profiling experiments using HNE, aliquots of the proteomes (0.5 mL each) were treated with 5, 10, 50, 100 and 500 μM of HNE using 5 μL of 0.5, 1.0, 5, 10 and 50 mM of stock solution, respectively. After 60 minutes of treatment at room temperature, both the LDE-treated and control aliquots were passed through a NAP-5 Sephadex column (GE healthcare) to remove any unreacted LDE. The volume of each aliquot was increased to 1 mL with the concentration at 2 mg/mL after this step.
(§5) Each of the control and LDE-treated proteome samples (˜2 mg protein/mL in 1 mL volume) was treated with 100 μM of IA-probe using 10 μL of a 10 mM stock in DMSO. The labeling reactions were incubated at room temperature for 1 hour. Click chemistry (acetylene-azide cycloaddition) was performed by the addition of 100 μM of either the Heavy-TEV-Tag (for the control sample) or Light-TEV-Tag (for the LDE-treated sample) (20 μL of a 5 mM stock), 1 mM TCEP (fresh 50× stock in water), 100 μM ligand (17× stock in DMSO:t-Butanol 1:4) and 1 mM CuSO4 (50× stock in water). Samples were allowed to react at room temperature for 1 hour. After the click chemistry step, the light and heavy-labeled samples were mixed together and centrifuged (5900×g, 4 min, 4° C.) to pellet the precipitated proteins.
(§6) The pellets were washed twice in cold MeOH, after which the pellet was solubilized in PBS containing 1.2% SDS via sonication and heating (5 min, 80° C.). Samples were subjected to streptavidin enrichment of probe-labeled proteins, sequential on-bead trypsin and TEV digestion, and liquid chromatography-mass spectrometry (LC-MS) analysis according to the published isoTOP-ABPP protocol^30. […]

The target of the next assay is T2, RTN4 (Homo sapiens, UniProt Q9NQC3).
T2 construct: directly in native proteomes; endogenous in cells; host or cells: MDA-MB-231
T2 sequence (Q9NQC3 1-1192): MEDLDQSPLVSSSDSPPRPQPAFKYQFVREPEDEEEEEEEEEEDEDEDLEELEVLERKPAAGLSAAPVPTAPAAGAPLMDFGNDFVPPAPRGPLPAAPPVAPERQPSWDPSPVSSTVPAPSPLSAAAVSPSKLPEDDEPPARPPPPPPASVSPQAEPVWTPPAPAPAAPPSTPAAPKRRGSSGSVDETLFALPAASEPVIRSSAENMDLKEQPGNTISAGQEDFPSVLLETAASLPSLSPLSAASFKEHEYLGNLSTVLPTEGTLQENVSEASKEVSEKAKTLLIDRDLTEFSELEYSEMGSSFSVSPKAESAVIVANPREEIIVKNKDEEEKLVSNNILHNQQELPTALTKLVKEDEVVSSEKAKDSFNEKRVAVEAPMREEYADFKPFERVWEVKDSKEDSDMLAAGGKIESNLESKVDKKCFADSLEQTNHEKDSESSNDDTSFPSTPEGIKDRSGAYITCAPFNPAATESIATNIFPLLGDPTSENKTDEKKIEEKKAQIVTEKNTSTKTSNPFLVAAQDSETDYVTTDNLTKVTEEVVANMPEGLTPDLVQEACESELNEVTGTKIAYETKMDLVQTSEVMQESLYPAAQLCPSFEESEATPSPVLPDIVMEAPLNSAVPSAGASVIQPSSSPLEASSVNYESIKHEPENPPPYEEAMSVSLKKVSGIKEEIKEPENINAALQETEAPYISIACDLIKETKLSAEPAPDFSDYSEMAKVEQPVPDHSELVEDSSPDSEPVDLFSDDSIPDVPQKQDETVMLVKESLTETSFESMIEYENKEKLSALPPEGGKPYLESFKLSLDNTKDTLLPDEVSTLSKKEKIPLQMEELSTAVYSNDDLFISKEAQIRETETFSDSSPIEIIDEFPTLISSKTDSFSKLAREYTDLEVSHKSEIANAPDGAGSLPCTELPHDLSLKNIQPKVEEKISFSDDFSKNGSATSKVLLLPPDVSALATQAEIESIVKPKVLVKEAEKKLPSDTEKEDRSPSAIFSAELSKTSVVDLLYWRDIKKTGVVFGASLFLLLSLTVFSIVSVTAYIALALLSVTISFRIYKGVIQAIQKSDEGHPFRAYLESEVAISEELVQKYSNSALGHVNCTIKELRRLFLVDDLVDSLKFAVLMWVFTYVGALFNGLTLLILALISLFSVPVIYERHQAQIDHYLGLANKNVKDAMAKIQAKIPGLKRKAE
The assay is described as above. The format is binding. Particulars: 100 μM LDE, 60 min; peptide YSNSALGHVNC*TIK. As to the method:
as §1, §2, §3, §4, §5, §6

Take `CCCCCCCCCCCCC/C=C/C=O` [2-HD, 2-trans-hexadecenal]: on EEF2, the “R value (isoTOP-ABPP ratio heavy/light) for IA-labeled cysteine of EEF2” value was found to be 1.06. Moreover, the “R value (isoTOP-ABPP ratio heavy/light) for IA-labeled cysteine of RTN4” value at RTN4 worked out at 1.1.
As to `CCCCCC(O)/C=C/C=O` (stereo not drawn) [4-HNE, 4-Hydroxynonenal], at EEF2, the “R value (isoTOP-ABPP ratio heavy/light) for IA-labeled cysteine of EEF2” value was 11.63. Besides, the “R value (isoTOP-ABPP ratio heavy/light) for IA-labeled cysteine of RTN4” value at RTN4 is recorded as 11.78.
Taken in the same sequence, the figures for `CCCCC/C=C/C=C1/C(=O)C=C[C@@H]1C/C=C\CCCC(=O)O` [PGJ2, 15-deoxy-Δ12,14-prostaglandin J2] were 3.31 and 2.93.
